These results are taken from paper PMC4955146, “Virtual screening and experimental validation of novel histone deacetylase inhibitors” (BMC Pharmacology & Toxicology, 2016).

For this test, the system named is HDACs in HeLa nuclear extracts. As to the kind of experiment: HDAC inhibitory activity assay (fluorometric HDAC inhibitor drug screening kit). The test is classed as biochemical. The following applies: percentage of the positive control, inhibitor control at 20 μM.

Experimental: The HDAC inhibitor drug screening kit (k340-100, BioVision, CA, USA) was used to measure HDAC inhibitory activities of the candidate compounds according to the manufacturer’s instructions. The candidate compounds, assay buffer, and HDAC fluorometric substrate, which comprises an acetylated lysine side chain, were added to HeLa nuclear extracts in a 96-well plate and incubated at 37 °C for 30 min. The reaction was stopped by adding lysine developer, and the mixture was incubated for another 30 min at 37 °C. An additional positive control included incubation with double-distilled water, and the inhibitor control consisted of incubation with Trichostatin A (TSA) at 20 μM. HDAC activities were quantified by a fluorescence plate reader (POLARstar OPTIMA, BMG, BRD) with excitation at 370 nm and emission at 450 nm.

Substance Trichostatin A [TSA] displayed a relative enzymatic activity of 12%.
